Measurements: patent US20070128217A1 (priority 2003, published 2007)

Key:
[1] = test system: rabbit serum obtained by immunizing a rabbit with the SARS-CoV strain Frankfurt 1; format: binding; set-up: Binding of a rabbit serum to linear peptides / Binding of a rabbit serum to looped peptides / Rabbit serum linear peptides / Rabbit serum looped peptides / Binding of a rabbit serum to linear peptides of protein N of SARS-CoV Urbani (Rabbit serum linear peptides) / Binding of a rabbit serum to looped/cyclic peptides of protein N of SARS-CoV Urbani (Rabbit serum looped peptides): unit not given here
[2] = test system: antibodies in sera from SARS patients (sera 1a, 1b, 2, 6, 37, 62, London, SARS-yellow, SARS-green); format: binding, human; set-up: Binding of serum 6 to linear peptides of protein X1 of SARS-CoV Urbani / Binding of serum 37 to linear peptides of protein X1 of SARS-CoV Urbani / Binding of serum 6 to looped/cyclic peptide (PEPSCAN-ELISA) / Binding of serum 37 to looped/cyclic peptide (PEPSCAN-ELISA) / Binding of serum 37 to looped/cyclic peptides of protein X1 of SARS-CoV Urbani / Binding of serum 6 to linear peptides of protein X2 / Binding of serum 37 to linear peptides of protein X2 / Binding of serum 37 to looped/cyclic peptides of protein X2 of SARS-CoV Urbani / Binding of serum 6 to linear peptides of protein M of SARS-CoV Urbani / Binding of serum 37 to linear peptides of protein M of SARS-CoV Urbani / Binding of serum 6 to looped/cyclic peptides of protein M of SARS-CoV Urbani / Binding of serum 37 to looped/cyclic peptides of protein M of SARS-CoV Urbani / Binding of serum 6 to linear peptides of protein X3 of SARS-CoV Urbani / Binding of serum 37 to linear peptides of protein X3 of SARS-CoV Urbani / Binding of serum 37 to looped/cyclic peptides of protein X3 of SARS-CoV Urbani / Binding of serum 6 to linear peptides of protein X4 of SARS-CoV Urbani / Binding of serum 37 to linear peptides of protein X4 of SARS-CoV Urbani / Binding of serum 37 to looped/cyclic peptides of protein X4 of SARS-CoV Urbani / Binding of serum 6 to linear peptides of protein X5 of SARS-CoV Urbani / Binding of serum 37 to linear peptides of protein X5 of SARS-CoV Urbani / Binding of serum 37 to looped/cyclic peptides of protein X5 of SARS-CoV Urbani / Binding of serum 6 to linear peptides of protein N of SARS-CoV Urbani / Binding of serum 37 to linear peptides of protein N of SARS-CoV Urbani / Binding of serum 6 to linear peptide (PEPSCAN-ELISA) / Binding of serum 1a to looped/cyclic peptides of protein N of SARS-CoV Urbani / Binding of serum 1b to looped/cyclic peptides of protein N of SARS-CoV Urbani / Binding of serum 2 to looped/cyclic peptides of protein N of SARS-CoV Urbani / Binding of serum 6 to looped/cyclic peptides of protein N of SARS-CoV Urbani / Binding of serum 37 to looped/cyclic peptides of protein N of SARS-CoV Urbani / Binding of serum 62 to looped/cyclic peptides of protein N of SARS-CoV Urbani / Binding of serum London to looped/cyclic peptides of protein N of SARS-CoV Urbani / Binding of serum SARS-green to looped/cyclic peptides of protein N of SARS-CoV Urbani: unit not given here
[3] = test system: control sera (pooled serum of ten healthy LUMC hospital workers; commercial negative donor pooled serum from the Dutch bloodbank); format: binding, human; set-up: Binding of Control serum LUMC to linear peptides / Binding of Control serum Blood-bank to linear peptides / Binding of Control serum LUMC to looped peptides / Binding of Control Serum Blood-Bank to Looped peptides / Binding of Control serum LUMC to linear peptides of the protein M of SARS-CoV Urbani / Binding of Control serum Blood-bank to linear peptides of the protein M of SARS-CoV Urbani / Binding of Control serum LUMC to looped peptides of the protein M of SARS-CoV Urbani / Binding of Control Serum Blood-Bank to Looped peptides of the protein M of SARS-CoV Urbani: unit not given here

IVVTEGDGISTPKLK
Binding of a rabbit serum to linear peptides [1]: 0.1
Binding of a rabbit serum to looped peptides [1]: 0.4
Binding of serum 1a to linear peptides of protein X1 of SARS-CoV Urbani [2]: 0.5
Binding of serum 1a to looped/cyclic peptides of protein X1 of SARS-CoV Urbani [2]: 0.3
Binding of serum 1b to linear peptides of protein X1 of SARS-CoV Urbani [2]: 0.5
Binding of serum 1b to looped/cyclic peptides of protein X1 of SARS-CoV Urbani [2]: 0.2
Binding of serum 2 to linear peptides of protein X1 of SARS-CoV Urbani [2]: 0.3
Binding of serum 2 to looped/cyclic peptides of protein X1 of SARS-CoV Urbani [2]: 0.1
Binding of serum 6 to linear peptides of protein X1 of SARS-CoV Urbani [2]: 0.4
Binding of serum 6 to looped/cyclic peptides of protein X1 of SARS-CoV Urbani [2]: 0.1
Binding of serum 37 to linear peptides of protein X1 of SARS-CoV Urbani [2]: 0.5
Binding of serum 37 to looped/cyclic peptides of protein X1 of SARS-CoV Urbani [2]: 0.2
Binding of serum 62 to linear peptides of protein X1 of SARS-CoV Urbani [2]: 0.3
Binding of serum 62 to looped/cyclic peptides of protein X1 of SARS-CoV Urbani [2]: 0.3
Binding of serum London to linear peptides of protein X1 of SARS-CoV Urbani [2]: 0.2
Binding of serum London to looped/cyclic peptides of protein X1 of SARS-CoV Urbani [2]: 0.1
Binding of serum SARS-green to linear peptides of protein X1 of SARS-CoV Urbani [2]: 0.1
Binding of serum SARS-green to looped/cyclic peptides of protein X1 of SARS-CoV Urbani [2]: 0.0
Binding of serum SARS-yellow to linear peptides of protein X1 of SARS-CoV Urbani [2]: 0.1
Binding of serum SARS-yellow to looped/cyclic peptides of protein X1 of SARS-CoV Urbani [2]: 0.1
Binding of Control Serum Blood-Bank to Looped peptides [3]: 0.3
Binding of Control serum Blood-bank to linear peptides [3]: 0.3
Binding of Control serum LUMC to linear peptides [3]: 0.3
Binding of Control serum LUMC to looped peptides [3]: 0.3

IYFLQCINACRIIMR
Binding of a rabbit serum to linear peptides [1]: 0.5
Binding of a rabbit serum to looped peptides [1]: 0.9
Binding of serum 1a to linear peptides of protein X1 of SARS-CoV Urbani [2]: 0.7
Binding of serum 1a to looped/cyclic peptide (PEPSCAN-ELISA) [2]: 0.6
Binding of serum 1b to linear peptides of protein X1 of SARS-CoV Urbani [2]: 0.6
Binding of serum 1b to looped/cyclic peptide (PEPSCAN-ELISA) [2]: 0.4
Binding of serum 2 to linear peptides of protein X1 of SARS-CoV Urbani [2]: 0.6
Binding of serum 2 to looped/cyclic peptide (PEPSCAN-ELISA) [2]: 0.8
Binding of serum 6 to linear peptides of protein X1 of SARS-CoV Urbani [2]: 0.5
Binding of serum 6 to looped/cyclic peptide (PEPSCAN-ELISA) [2]: 1.0
Binding of serum 37 to linear peptides of protein X1 of SARS-CoV Urbani [2]: 0.7
Binding of serum 37 to looped/cyclic peptide (PEPSCAN-ELISA) [2]: 0.6
Binding of serum 62 to linear peptides of protein X1 of SARS-CoV Urbani [2]: 0.7
Binding of serum 62 to looped/cyclic peptide (PEPSCAN-ELISA) [2]: 0.7
Binding of serum London to linear peptides of protein X1 of SARS-CoV Urbani [2]: 0.3
Binding of serum London to looped/cyclic peptide (PEPSCAN-ELISA) [2]: 1.6
Binding of serum SARS-green to linear peptides of protein X1 of SARS-CoV Urbani [2]: 0.2
Binding of serum SARS-green to looped/cyclic peptide (PEPSCAN-ELISA) [2]: 0.2
Binding of serum SARS-yellow to linear peptides of protein X1 of SARS-CoV Urbani [2]: 0.5
Binding of serum SARS-yellow to looped/cyclic peptide (PEPSCAN-ELISA) [2]: 0.6
Binding of Control Serum Blood-Bank to Looped peptides [3]: 0.6
Binding of Control serum Blood-bank to linear peptides [3]: 0.7
Binding of Control serum LUMC to linear peptides [3]: 0.7
Binding of Control serum LUMC to looped peptides [3]: 0.6
